Source: patent publication US20150031655A1, “COMBINATION OF LIVER X RECEPTOR MODULATOR AND ESTROGEN RECEPTOR MODULATOR FOR THE TREATMENT OF AGE-RELATED DISEASES” (UNIVERSITY OF NORTH DAKOTA, priority 2011, published 2015)

How the values were obtained:
[1] = in vivo; cited from earlier work
[2] = tested on: experimental intracerebral hemorrhage; conditions: 10 μmol.Kg^−1.day^−1 i.p.; cited from earlier work
α-synuclein = experiment: Western blot of α-synuclein protein levels in SH-SY5Y cells; format: cell-based, human; conditions: for basal α-synuclein expression levels: treatment alone vs control
Protocol: (§1) Human neuroblastoma SH-SY5Y cells were grown in DMEM/F12 medium containing 10% fetal bovine serum (FBS) and 1% antibiotic/antimycotic mix. Cells were maintained at 37° C. in a saturated humidity atmosphere containing 95% air and 5% CO2.
(§2) Treated SH-SY5Y cells were washed with PBS and trypsinized to collect the cells and centrifuged at 5000 g. The pellet was washed again with PBS and homogenized in NE-PER tissue protein extraction reagent (Thermo Scientific, Rockford, Ill.) supplemented with protease and phosphatase inhibitors. Protein concentrations from the cytosolic and nuclear homogenates were determined with BCA protein assay.
(§3) Proteins (10 μg) were separated on SDS-PAGE gels, transferred to a polyvinylidene difluoride membrane (BioRad, Hercules, Calif.), and incubated with the following monoclonal antibodies: anti-TH mouse antibody (1:1000; Sigma Aldrich, Saint Louis, Mo.), anti-α-synuclein mouse antibody (1:500; Chemicon, Temecula, Calif.), anti-ERα rabbit antibody (1:500; Abcam, Cambridge, Mass.), anti-ERβ rabbit antibody (1:200; Upstate, Lake Placid, N.Y.), anti-LXRα rabbit antibody (1:500; Abcam, Cambridge, Mass.), anti-LXRβ mouse antibody (1:500; Abcam, Cambridge, Mass.).
(§4) β-actin and Lamin A were used as a gel loading control for cytosolic homogenates and nuclear homogenates respectively. The blots were developed with enhanced chemiluminescence (Immmun-star HRP chemiluminescent kit, Bio-Rad, Hercules, Calif.). Bands were visualized on a polyvinylidene difluoride membrane and analyzed by LabWorks 4.5 software on a UVP Bioimaging System (Upland, Calif.). Quantification of results was performed by densitometry and the results analyzed as total integrated densitometric values (arbitrary units).

[3] = tested on: human neuroblastoma cells; conditions: cited from earlier work
TH mRNA = experiment: Real time RT-PCR of TH mRNA in SH-SY5Y cells; format: cell-based, human; conditions: 24 h
Protocol: as §1
Total RNA was isolated and extracted from treated cells using the 5 prime “PerfectPure RNA tissue kit” (5 Prime, Inc., Gaithersburg, Md.). RNA estimation was performed using “Quant-iT RNA Assay Kit” using a Qubit fluorometer according to the manufacturer's protocol (Invitrogen, Carlsbad, Calif.). cDNA was synthesized by reverse transcribing 1 μg of extracted RNA using an “iScript cDNA synthesis kit” (BioRad, Hercules, Calif.). The oligomeric primers (Sigma, St Louis, Mo.) used to amplify the TH mRNA and α-synuclein mRNA are enumerated in Table 1. The cDNA amplification was performed using an iQ SYBR Green Supermix kit following the manufacturer's instructions (BioRad, Hercules, Calif.). The amplification was performed using an iCycler iQ Multicolor Real Time PCR Detection System (BioRad, Hercules, Calif.). The expression of specific TH and α-synuclein transcripts amplified were normalized to the expression of glyceraldehyde-3-phosphate dehydrogenase (GAPDH).

TH = experiment: Western blot of TH protein levels in SH-SY5Y neuroblastoma cells; format: cell-based, human; conditions: 24 h
Protocol: as §1, §2, §3, §4

ARPE-19 cells = experiment: ROS levels in ARPE-19 cells; format: cell-based; conditions: ARPE-19, 24 h, co-treatment with 27-OHC, all at 10 μM
ERα/β = experiment: EMSA, binding of nuclear ER to probe for the ERE half site in the TH promoter; format: cell-based, human
ERβ = molecular target: T1, ERβ (Homo sapiens, UniProt Q92731); experiment: Western blot of ERβ levels in the nucleus (nuclear translocation), SH-SY5Y cells; format: cell-based; conditions: 24 h
T1 construct: endogenous in cells; host or cells: SH-SY5Y human neuroblastoma cells
T1 sequence (Q92731 whole entry): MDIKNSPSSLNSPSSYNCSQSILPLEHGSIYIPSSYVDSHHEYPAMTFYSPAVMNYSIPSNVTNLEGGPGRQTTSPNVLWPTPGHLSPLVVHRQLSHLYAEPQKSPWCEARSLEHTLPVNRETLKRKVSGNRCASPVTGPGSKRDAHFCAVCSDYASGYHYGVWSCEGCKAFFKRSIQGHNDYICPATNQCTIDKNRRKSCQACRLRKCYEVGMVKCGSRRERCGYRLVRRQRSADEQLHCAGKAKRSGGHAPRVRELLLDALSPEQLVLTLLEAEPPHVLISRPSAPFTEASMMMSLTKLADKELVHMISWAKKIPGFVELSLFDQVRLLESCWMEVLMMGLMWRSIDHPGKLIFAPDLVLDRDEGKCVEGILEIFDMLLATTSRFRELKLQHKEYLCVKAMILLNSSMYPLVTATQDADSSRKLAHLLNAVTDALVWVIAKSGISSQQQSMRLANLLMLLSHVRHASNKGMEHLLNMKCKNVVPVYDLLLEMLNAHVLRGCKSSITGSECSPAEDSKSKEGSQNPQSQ
Protocol: as §1, §2, §3, §4

TH promoter = experiment: Dual-luciferase TH promoter assay; format: cell-based, human
Protocol: Constructs encoding ERE and TH promoter conjugated to the firefly luciferase gene were used in the study. Human neuroblastoma SH-SY5Y cells were plated in 96-well plates at a density of 2×10^4 cells/well. The cells were transfected when 80% confluent with 0.25 μg of either ERE-firefly Luciferase reporter construct, LXRE-firefly Luciferase reporter construct, or TH promotor-firefly Luciferase promoter construct. Respective non-inducible reporter constructs containing constitutively expressing Renilla luciferase were used as negative internal controls. Constitutively expressing GFP constructs were used as positive control to determine transfection efficiency. Cells were incubated for 24 hours with Opti-MEM serum free medium (Invitrogen, Carlsbad, Calif.) containing the reporter constructs dissolved in transfection reagent. After 24 hours the medium was changed and the cells were incubated in normal DMEM/F12 medium containing 10% FBS and cells were treated with the different treatment regimens. The cells were treated in triplicate and harvested 24 hours later and subjected to dual-luciferases assay. The dual-luciferase assay was performed using a “Dual-Luciferase Reporter Assay System” from Promega (Madison, Wis.). The luminescence recorded is expressed as Relative Luminescence Units (RLU) and normalized to per mg protein. Unit value was assigned to control and the magnitude of differences among the samples is expressed relative to the unit value of control cells.

TNF-α = TNF-α levels in ARPE-19 cells; format: cell-based; conditions: ARPE-19, 24 h, co-treatment with 27-OHC, all at 10 μM

SMILES: CCC1=C(C)c2cc3[n-]c(cc4[n-]c(cc5nc(cc1n2)C(C)=C5CC)c(C)c4CCC(=O)O)c(CCC(=O)O)c3C.[Cl-].[Cl-].[Sn+4] [SnMP, Tin-mesoporphyrin IX]
- blood brain barrier passage [1]: crosses
- protection against experimental intracerebral hemorrhage [2]: protect

SMILES: C[C@]12CC[C@@H]3c4ccc(O)cc4C[C@@H](CCCCCCCCC[S+]([O-])CCCC(F)(F)C(F)(F)F)[C@H]3[C@@H]1CC[C@@H]2O (some centres unmarked) [ICI 182780, Fulvestrant]
- basal α-synuclein expression levels (α-synuclein): no effect

SMILES: CC(C)C(O)CC[C@@H](C)[C@H]1CC[C@H]2[C@@H]3CC=C4C[C@@H](O)CC[C@]4(C)[C@H]3CC[C@]12C (some centres unmarked) [24-OHC, 24-hydroxycholesterol]
- 27-OHC-induced effects on TH [3]: reverse
- 27-OHC-induced effects on α-synuclein [3]: reverse

SMILES: C[C@]12CC[C@@H]3c4ccc(O)cc4CC[C@H]3[C@@H]1CC[C@@H]2O [estradiol, 17β-estradiol]
- 27-OHC-induced attenuation of TH mRNA (TH mRNA; concomitant with 10 μM 27-OHC): completely reversed
- TH mRNA (TH mRNA; treatment alone vs control): increase
- TH protein levels (TH; concomitant with 10 μM 27-OHC, compared to control or 27-OHC): significant increase
- TH protein levels / TH expression (TH; treatment alone vs control (10 μM 27-OHC, 1 nM estradiol, 10 μM GW3965, 10 μM ECHS)): profound increase
- 27-OHC-induced increase in ROS levels (ARPE-19 cells): not
- binding of nuclear ER to the DNA probe corresponding to the ERE-half site on the TH promoter (ERα/β): significantly increases
- inhibitory effects of 27-OHC on binding of ER to the exogenous DNA probe (ERα/β): completely reverses
- 27-OHC-induced attenuation in the nuclear translocation of ERβ (ERβ; concomitant with 10 μM 27-OHC): completely reduced
- nuclear translocation / nuclear levels of ERβ (ERβ; treatment alone vs control): increases
- effect of ECHS on 27-OHC-induced increase in α-synuclein expression (α-synuclein; estradiol added to 27-OHC+ECHS): does not alter
- α-synuclein expression (α-synuclein; in combination with ECHS): no effect
- basal α-synuclein expression levels (α-synuclein): no effect
- increase in basal TH promoter activity (TH promoter; SH-SY5Y transfected with TH promoter-luciferase, 24 h): 2.5 fold
- 27-OHC-induced reduction of TH promoter activity (TH promoter; concomitant with 27-OHC): completely reversed
- 27-OHC-induced increase in TNF-α levels (TNF-α): reduced
